Experiments:
[1] = biological target: T1, Seed linoleate 13S-lipoxygenase-1 (Glycine max) (UniProt P08170); test: Inhibition of soybean LOX1 at 100 uM
T1 sequence (whole entry): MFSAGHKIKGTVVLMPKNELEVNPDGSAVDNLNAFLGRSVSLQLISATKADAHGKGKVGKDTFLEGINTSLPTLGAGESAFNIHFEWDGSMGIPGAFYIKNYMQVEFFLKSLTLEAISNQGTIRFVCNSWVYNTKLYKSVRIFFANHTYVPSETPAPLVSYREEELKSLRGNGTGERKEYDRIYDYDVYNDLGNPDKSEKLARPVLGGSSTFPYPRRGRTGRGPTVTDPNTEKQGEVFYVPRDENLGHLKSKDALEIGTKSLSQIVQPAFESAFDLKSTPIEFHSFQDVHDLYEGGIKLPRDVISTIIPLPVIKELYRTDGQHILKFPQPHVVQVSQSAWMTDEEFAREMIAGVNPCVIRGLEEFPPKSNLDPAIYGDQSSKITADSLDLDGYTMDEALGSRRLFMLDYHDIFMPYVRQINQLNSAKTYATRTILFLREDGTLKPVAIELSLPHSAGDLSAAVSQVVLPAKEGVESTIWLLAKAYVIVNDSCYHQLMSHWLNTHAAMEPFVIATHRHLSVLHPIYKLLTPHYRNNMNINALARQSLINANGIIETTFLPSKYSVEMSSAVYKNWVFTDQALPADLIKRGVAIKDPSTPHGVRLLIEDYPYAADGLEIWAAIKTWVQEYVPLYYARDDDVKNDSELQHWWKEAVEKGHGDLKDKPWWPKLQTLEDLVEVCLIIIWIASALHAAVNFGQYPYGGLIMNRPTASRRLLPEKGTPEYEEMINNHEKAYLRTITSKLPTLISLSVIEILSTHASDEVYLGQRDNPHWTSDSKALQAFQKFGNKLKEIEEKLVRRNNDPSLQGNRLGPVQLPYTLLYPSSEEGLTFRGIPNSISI

[2] = biological target: T2, Prostaglandin G/H synthase 1 (Ovis aries) (UniProt P05979); test: Inhibition of ovine COX1 at 200 uM by enzyme immuno assay
T2 sequence (whole entry): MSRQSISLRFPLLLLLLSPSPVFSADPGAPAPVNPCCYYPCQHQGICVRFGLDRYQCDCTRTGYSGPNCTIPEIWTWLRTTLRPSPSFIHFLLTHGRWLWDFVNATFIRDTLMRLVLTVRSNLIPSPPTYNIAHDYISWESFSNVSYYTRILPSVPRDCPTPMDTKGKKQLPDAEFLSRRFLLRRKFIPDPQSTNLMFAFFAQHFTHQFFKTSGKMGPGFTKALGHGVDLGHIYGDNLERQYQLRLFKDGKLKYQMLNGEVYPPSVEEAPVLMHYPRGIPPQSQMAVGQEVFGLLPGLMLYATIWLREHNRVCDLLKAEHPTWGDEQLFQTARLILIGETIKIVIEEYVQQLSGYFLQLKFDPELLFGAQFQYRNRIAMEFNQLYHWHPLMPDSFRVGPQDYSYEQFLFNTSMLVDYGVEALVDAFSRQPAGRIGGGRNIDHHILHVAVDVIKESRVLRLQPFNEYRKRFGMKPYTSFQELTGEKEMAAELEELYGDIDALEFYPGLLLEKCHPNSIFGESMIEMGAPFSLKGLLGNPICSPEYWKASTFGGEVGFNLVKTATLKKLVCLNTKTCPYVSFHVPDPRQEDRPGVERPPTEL

[3] = biological target: T3, Prostaglandin G/H synthase 2 (Homo sapiens) (UniProt P35354); test: Inhibition of human recombinant COX2 at 200 uM by enzyme immuno assay
T3 sequence (whole entry): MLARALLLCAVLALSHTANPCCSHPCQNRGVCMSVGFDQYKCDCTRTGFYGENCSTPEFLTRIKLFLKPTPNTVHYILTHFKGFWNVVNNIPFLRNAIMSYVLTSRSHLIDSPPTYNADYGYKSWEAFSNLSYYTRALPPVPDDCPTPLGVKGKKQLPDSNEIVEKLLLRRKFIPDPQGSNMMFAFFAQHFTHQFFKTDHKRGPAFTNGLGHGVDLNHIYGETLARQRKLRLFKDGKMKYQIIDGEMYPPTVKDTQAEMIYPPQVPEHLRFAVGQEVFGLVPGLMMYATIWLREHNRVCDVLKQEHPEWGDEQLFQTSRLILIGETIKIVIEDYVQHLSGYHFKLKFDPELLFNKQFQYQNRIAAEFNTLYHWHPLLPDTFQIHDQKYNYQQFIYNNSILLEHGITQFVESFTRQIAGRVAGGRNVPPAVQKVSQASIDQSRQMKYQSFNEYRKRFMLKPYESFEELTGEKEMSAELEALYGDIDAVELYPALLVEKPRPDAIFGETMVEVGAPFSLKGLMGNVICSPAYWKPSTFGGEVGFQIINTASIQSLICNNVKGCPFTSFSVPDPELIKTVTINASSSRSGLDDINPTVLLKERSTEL

Rattus norvegicus = test: Antiinflammatory activity in AKR rat assessed as inhibition of carrageenan-induced right hind paw oedema at 0.2 mmol/kg, ip coadministered with carrageenan relative to control; format: functional
[4] = biological target: T2, Prostaglandin G/H synthase 1 (Ovis aries); test: Inhibition of ovine COX1 at 20 uM by enzyme immuno assay
[5] = biological target: T3, Prostaglandin G/H synthase 2 (Homo sapiens); test: Inhibition of human recombinant COX2 at 20 uM by enzyme immuno assay

| Compound | inhibition [1] | inhibition in vivo at 200 µmol/kg (Rattus norvegicus) | further results |
| --- | --- | --- | --- |
| O=C(CN1CCCC1)Nc1nc(C23CC4CC(CC(C4)C2)C3)cs1 | 5% | 69.7% | inhibition [2]: 33.6%; inhibition [3]: 12.2% |
| CN(C)CC(=O)Nc1nc(-c2ccccc2)cs1 | – | 52% | – |
| COc1ccc(-c2csc(NC(=O)CCN3CCCC3)n2)cc1 | – | 56.2% | – |
| O=C(CCN1CCCC1)Nc1nc(C23CC4CC(CC(C4)C2)C3)cs1 | – | 36.8% | – |
| O=C(CCN1CCN(c2ccccc2)CC1)Nc1nc(C23CC4CC(CC(C4)C2)C3)cs1 | 39% | 55.9% | inhibition [4]: 28.6%; inhibition [5]: 17.3% |
| COc1ccc(-c2csc(NC(=O)CN3CCCCC3)n2)cc1 | – | 53.3% | – |
| O=C(CCN1CCCC1)Nc1nccs1 | – | 64.1% | – |
| Cc1csc(NC(=O)CN(C)C)n1 | – | 37.6% | – |
| O=C(CN1CCN(c2ccccc2)CC1)Nc1nccs1 | – | 72.1% | – |
| COc1ccc(-c2csc(NC(=O)CCN3CCOCC3)n2)cc1 | – | 55.4% | – |
| O=C(CN1CCN(c2ccccc2)CC1)Nc1nc(C23CC4CC(CC(C4)C2)C3)cs1 | 33% | 47.6% | inhibition [2]: 43.6%; inhibition [3]: 15.8% |
| CN(C)CC(=O)Nc1nc(C23CC4CC(CC(C4)C2)C3)cs1 | 26.4% | 48% | inhibition [2]: 25%; inhibition [3]: 3.6% |
| O=C(CN1CCCCC1)Nc1nc(C23CC4CC(CC(C4)C2)C3)cs1 | 0% | 26.6% | – |
| CN(C)CCC(=O)Nc1nc(C23CC4CC(CC(C4)C2)C3)cs1 | 1% | 81.5% | inhibition [2]: 25%; inhibition [3]: 8.6% |
| CN(C)CC(=O)Nc1nccs1 | – | 28.4% | – |
| O=C(CN1CCOCC1)Nc1nc(C23CC4CC(CC(C4)C2)C3)cs1 | 0% | 57.8% | inhibition [2]: 27.9%; inhibition [3]: 35.3% |
| COc1ccc(-c2csc(NC(=O)CN3CCCC3)n2)cc1 | – | 55% | – |
| O=C(CCN1CCOCC1)Nc1nc(C23CC4CC(CC(C4)C2)C3)cs1 | 8.4% | 49.2% | – |
| O=C(CCN1CCCC1)Nc1nc(-c2ccccc2)cs1 | – | 68.4% | – |
| CN1CCN(CC(=O)Nc2nc(C34CC5CC(CC(C5)C3)C4)cs2)CC1 | – | 30% | – |
| COc1ccc(-c2csc(NC(=O)CN(C)C)n2)cc1 | – | 35% | – |
| O=C(CN1CCCC1)Nc1nc(-c2ccccc2)cs1 | – | 49.2% | – |

Reference: ChEMBL document CHEMBL1138550, “Adamantane derivatives of thiazolyl-N-substituted amide, as possible non-steroidal anti-inflammatory agents” (2009)
